Measured values reported in US9302999B2, “Substituted triazoles as herbicides” (E. I. DU PONT DE NEMOURS AND COMPANY, priority 2012, dated 2016).

What was measured:
Type in all cases: in vivo
Conditions in all cases: Preemergence, scale 0 to 100
[1] = test system: sandbur (southern sandbur, Cenchrus echinatus); assay: Test E pre-/postemergence: sandbur
Description: (§1) Seeds of plant species selected from corn (Zea mays), soybean (Glycine max), velvetleaf (Abutilon theophrasti), lambsquarters (Chenopodium album), poinsettia, wild (wild poinsettia, Euphorbia heterophylla), pigweed, palmer (palmer pigweed, Amaranthus palmeri), waterhemp (common waterhemp, Amaranthus rudis), smartweed (ladysthumb smartweed, Polygonum persicaria), surinam grass (Brachiaria decumbens), crabgrass, large (large crabgrass, Digitaria sanguinalis), crabgrass, Brazil (Brazilian crabgrass, Digitaria horizontalis), panicum, fall (fall panicum, Panicum dichotomiflorum), foxtail, giant (giant foxtail, Setaria faberii), foxtail, green (green foxtail, Setaria viridis), goosegrass (Eleusine indica), johnsongrass (Sorghum halepense), ragweed (common ragweed, Ambrosia elation), barnyardgrass (Echinochloa crus-galli), sandbur (southern sandbur, Cenchrus echinatus), arrowleaf sida (Sida rhombifolia), ryegrass, Italian (Italian ryegrass, Lolium multiflorum), dayflower, (VA) (Virginia dayflower, Commelina virginica), field bindweed (Convolvulus arvensis), cocklebur (common cocklebur, Xanthium strumarium), morningglory (Ipomoea coccinea), nightshade (eastern black nightshade, Solanum ptycanthum), kochia (Kochia scoparia), nutsedge, yellow (yellow nutsedge, Cyperus esculentus) and beggarticks (hairy beggarticks, Bidens pilosa) were planted into a silt loam soil and treated preemergence with test chemicals formulated in a non-phytotoxic solvent mixture which included a surfactant. At the same time, plants selected from these crop and weed species were planted in pots containing a growing medium comprising spaghnum peat moss, vermiculite, wetting agent and starter nutrients and treated with postemergence applications of some of the test chemicals formulated in the same manner. Plants ranged in height from 2 to 18 cm for postemergence treatments (1- to 4-leaf stage).
(§2) Treated plants and controls were maintained in a greenhouse for 14 to 21 days, after which time all species were compared to controls and visually evaluated. Plant response ratings, summarized in Table E, are based on a scale of 0 to 100 where 0 is no effect and 100 is complete control. A dash (-) response means no test result.

[2] = test system: morningglory (Ipomoea coccinea); assay: Test E pre-/postemergence: morningglory
Description: as §1, §2

[3] = test system: waterhemp (common waterhemp, Amaranthus rudis); assay: Test E pre-/postemergence: waterhemp
How it was run: (§3)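 Scores reflect greenhouse visual evaluation after 14–21 days, 0 meaning no effect and 100 complete control relative to untreated plants, for pre- and postemergence (1–4 leaf) applications.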

[4] = test system: surinam grass (Brachiaria decumbens); assay: Test E pre-/postemergence: surinam grass
Description: as §1, §2

[5] = test system: crabgrass, large (large crabgrass, Digitaria sanguinalis); assay: Test E pre-/postemergence: crabgrass, large
How it was run: as §3

[6] = test system: smartweed (ladysthumb smartweed, Polygonum persicaria); assay: Test E pre-/postemergence: smartweed
Description: as §1, §2

[7] = test system: foxtail, giant (giant foxtail, Setaria faberii); assay: Test E pre-/postemergence: foxtail, giant
Description: as §1, §2

[8] = test system: johnsongrass (Sorghum halepense); assay: Test E pre-/postemergence: johnsongrass
How it was run: as §3

corn (Zea mays) = assay: Test E pre-/postemergence: corn
How it was run: as §3

[9] = test system: nightshade (eastern black nightshade, Solanum ptycanthum); assay: Test E pre-/postemergence: nightshade
Description: as §1, §2

`COc1nn(-c2ccc(C(F)(F)F)cc2)nc1Cc1ccnc(C(F)(F)F)c1` [Compound 15, 4-[[5-methoxy-2-[4-(trifluoromethyl)phenyl]-2H-1,2,3-triazol-4-yl]methyl]-2-(trifluoromethyl)pyridine] was tested, and the “Plant response rating: Sandbur” value ([1]; 16 g ai/ha) was 5, the “Plant response rating: Sandbur” value ([1]; 31 g ai/ha) was 25 and the “Plant response rating: Sandbur” value ([1]; 62 g ai/ha) was 50. For the same compound, the “Plant response rating: Sandbur” value ([1]; 125 g ai/ha) was 90, the “Plant response rating: Sandbur” value ([1]; 250 g ai/ha) was 100 and the “Plant response rating: Morningglory” value ([2]; 16 g ai/ha) was 10. For the same compound, the “Plant response rating: Morningglory” value ([2]; 31 g ai/ha) was 50, the “Plant response rating: Morningglory” value ([2]; 62 g ai/ha) was 50 and the “Plant response rating: Morningglory” value ([2]; 125 g ai/ha) was 65. The “Plant response rating: Morningglory” value ([2]; 250 g ai/ha) was 65, the “Plant response rating: Waterhemp” value ([3]; 16 g ai/ha) was 98 and the “Plant response rating: Waterhemp” value ([3]; 31 g ai/ha) was 100. For the same compound, the “Plant response rating: Waterhemp” value ([3]; 62 g ai/ha) was 100, the “Plant response rating: Waterhemp” value ([3]; 125 g ai/ha) was 100 and the “Plant response rating: Waterhemp” value ([3]; 250 g ai/ha) was 100. For the same compound, the “Plant response rating: Surinam Grass” value ([4]; 16 g ai/ha) was 5, the “Plant response rating: Surinam Grass” value ([4]; 31 g ai/ha) was 50 and the “Plant response rating: Surinam Grass” value ([4]; 62 g ai/ha) was 75. For the same compound, the “Plant response rating: Surinam Grass” value ([4]; 125 g ai/ha) was 98, the “Plant response rating: Surinam Grass” value ([4]; 250 g ai/ha) was 100 and the “Plant response rating: Crabgrass, Large” value ([5]; 16 g ai/ha) was 15. The “Plant response rating: Crabgrass, Large” value ([5]; 31 g ai/ha) was 90, the “Plant response rating: Crabgrass, Large” value ([5]; 62 g ai/ha) was 100 and the “Plant response rating: Crabgrass, Large” value ([5]; 125 g ai/ha) was 100. The “Plant response rating: Crabgrass, Large” value ([5]; 250 g ai/ha) was 100, the “Plant response rating: Smartweed” value ([6]; 31 g ai/ha) was 60 and the “Plant response rating: Smartweed” value ([6]; 62 g ai/ha) was 98. The “Plant response rating: Smartweed” value ([6]; 125 g ai/ha) was 98, the “Plant response rating: Smartweed” value ([6]; 250 g ai/ha) was 100 and the “Plant response rating: Foxtail, Giant” value ([7]; 16 g ai/ha) was 65. The “Plant response rating: Foxtail, Giant” value ([7]; 31 g ai/ha) was 98, the “Plant response rating: Foxtail, Giant” value ([7]; 62 g ai/ha) was 100 and the “Plant response rating: Foxtail, Giant” value ([7]; 125 g ai/ha) was 100. For the same compound, the “Plant response rating: Foxtail, Giant” value ([7]; 250 g ai/ha) was 100, the “Plant response rating: Johnsongrass” value ([8]; 16 g ai/ha) was 10 and the “Plant response rating: Johnsongrass” value ([8]; 31 g ai/ha) was 65. The “Plant response rating: Johnsongrass” value ([8]; 62 g ai/ha) was 65, the “Plant response rating: Johnsongrass” value ([8]; 125 g ai/ha) was 98 and the “Plant response rating: Johnsongrass” value ([8]; 250 g ai/ha) was 100. For the same compound, the “Plant response rating: Corn” value (corn (Zea mays); 16 g ai/ha) was 0, the “Plant response rating: Corn” value (corn (Zea mays); 31 g ai/ha) was 0 and the “Plant response rating: Corn” value (corn (Zea mays); 62 g ai/ha) was 0. For the same compound, the “Plant response rating: Corn” value (corn (Zea mays); 125 g ai/ha) was 5, the “Plant response rating: Corn” value (corn (Zea mays); 250 g ai/ha) was 10 and the “Plant response rating: Nightshade” value ([9]; 16 g ai/ha) was 5. The “Plant response rating: Nightshade” value ([9]; 31 g ai/ha) was 35, the “Plant response rating: Nightshade” value ([9]; 62 g ai/ha) was 98 and the “Plant response rating: Nightshade” value ([9]; 125 g ai/ha) was 98. For the same compound, the “Plant response rating: Nightshade” value ([9]; 250 g ai/ha) was 100.
In the case of `FC(F)(F)COc1nn(-c2ccc(C(F)(F)F)cc2)nc1Cc1ccnc(C(F)(F)F)c1` [Compound 14, 4-[[5-(2,2,2-trifluoroethoxy)-2-[4-(trifluoromethyl)phenyl]-2H-1,2,3-triazol-4-yl]methyl]-2-(trifluoromethyl)pyridine], the “Plant response rating: Sandbur” value ([1]; 16 g ai/ha) is reported as 5, the “Plant response rating: Sandbur” value ([1]; 31 g ai/ha) is reported as 5 and the “Plant response rating: Sandbur” value ([1]; 62 g ai/ha) is reported as 15. The “Plant response rating: Sandbur” value ([1]; 125 g ai/ha) was 50, the “Plant response rating: Sandbur” value ([1]; 250 g ai/ha) was 50 and the “Plant response rating: Morningglory” value ([2]; 16 g ai/ha) was 0. The “Plant response rating: Morningglory” value ([2]; 31 g ai/ha) was 20, the “Plant response rating: Morningglory” value ([2]; 62 g ai/ha) was 35 and the “Plant response rating: Morningglory” value ([2]; 125 g ai/ha) was 75. The “Plant response rating: Morningglory” value ([2]; 250 g ai/ha) was 75, the “Plant response rating: Waterhemp” value ([3]; 16 g ai/ha) was 90 and the “Plant response rating: Waterhemp” value ([3]; 31 g ai/ha) was 98. For the same compound, the “Plant response rating: Waterhemp” value ([3]; 62 g ai/ha) was 100, the “Plant response rating: Waterhemp” value ([3]; 125 g ai/ha) was 100 and the “Plant response rating: Waterhemp” value ([3]; 250 g ai/ha) was 100. The “Plant response rating: Surinam Grass” value ([4]; 16 g ai/ha) was 5, the “Plant response rating: Surinam Grass” value ([4]; 31 g ai/ha) was 10 and the “Plant response rating: Surinam Grass” value ([4]; 62 g ai/ha) was 25. The “Plant response rating: Surinam Grass” value ([4]; 125 g ai/ha) was 65, the “Plant response rating: Surinam Grass” value ([4]; 250 g ai/ha) was 100 and the “Plant response rating: Crabgrass, Large” value ([5]; 16 g ai/ha) was 65. For the same compound, the “Plant response rating: Crabgrass, Large” value ([5]; 31 g ai/ha) was 75, the “Plant response rating: Crabgrass, Large” value ([5]; 62 g ai/ha) was 95 and the “Plant response rating: Crabgrass, Large” value ([5]; 125 g ai/ha) was 100. The “Plant response rating: Crabgrass, Large” value ([5]; 250 g ai/ha) was 100, the “Plant response rating: Smartweed” value ([6]; 31 g ai/ha) was 25 and the “Plant response rating: Smartweed” value ([6]; 62 g ai/ha) was 80. For the same compound, the “Plant response rating: Smartweed” value ([6]; 250 g ai/ha) was 80, the “Plant response rating: Foxtail, Giant” value ([7]; 16 g ai/ha) was 50 and the “Plant response rating: Foxtail, Giant” value ([7]; 31 g ai/ha) was 75. The “Plant response rating: Foxtail, Giant” value ([7]; 62 g ai/ha) was 98, the “Plant response rating: Foxtail, Giant” value ([7]; 125 g ai/ha) was 100 and the “Plant response rating: Foxtail, Giant” value ([7]; 250 g ai/ha) was 100. For the same compound, the “Plant response rating: Johnsongrass” value ([8]; 16 g ai/ha) was 10, the “Plant response rating: Johnsongrass” value ([8]; 31 g ai/ha) was 20 and the “Plant response rating: Johnsongrass” value ([8]; 62 g ai/ha) was 70. For the same compound, the “Plant response rating: Johnsongrass” value ([8]; 125 g ai/ha) was 90, the “Plant response rating: Johnsongrass” value ([8]; 250 g ai/ha) was 95 and the “Plant response rating: Corn” value (corn (Zea mays); 16 g ai/ha) was 0. For the same compound, the “Plant response rating: Corn” value (corn (Zea mays); 31 g ai/ha) was 0, the “Plant response rating: Corn” value (corn (Zea mays); 62 g ai/ha) was 0 and the “Plant response rating: Corn” value (corn (Zea mays); 125 g ai/ha) was 0. For the same compound, the “Plant response rating: Corn” value (corn (Zea mays); 250 g ai/ha) was 0, the “Plant response rating: Nightshade” value ([9]; 16 g ai/ha) was 35 and the “Plant response rating: Nightshade” value ([9]; 31 g ai/ha) was 60. The “Plant response rating: Nightshade” value ([9]; 62 g ai/ha) was 98, the “Plant response rating: Nightshade” value ([9]; 125 g ai/ha) was 98 and the “Plant response rating: Nightshade” value ([9]; 250 g ai/ha) was 98.
